Patent publication US8735387B2, “Oxazolopyrimidines as Edg-1 receptor agonists” (Sanofi, priority 2008, dated 2014)

What follows are compounds tested against T1, human Edg-1 receptor (Homo sapiens, UniProt P21453) (assay: GTP-γ-S assay using human Edg-1 receptors (scintillation proximity assay, membrane preparation from CHO Flp-In cell line)). Conditions: example compound at 10 μM; relative to 10 μM S1P; GTP-γ-S SPA, human Edg-1 membranes.
T1 construct: expressed in transfected cells; membrane preparation
T1 sequence (P21453 whole entry): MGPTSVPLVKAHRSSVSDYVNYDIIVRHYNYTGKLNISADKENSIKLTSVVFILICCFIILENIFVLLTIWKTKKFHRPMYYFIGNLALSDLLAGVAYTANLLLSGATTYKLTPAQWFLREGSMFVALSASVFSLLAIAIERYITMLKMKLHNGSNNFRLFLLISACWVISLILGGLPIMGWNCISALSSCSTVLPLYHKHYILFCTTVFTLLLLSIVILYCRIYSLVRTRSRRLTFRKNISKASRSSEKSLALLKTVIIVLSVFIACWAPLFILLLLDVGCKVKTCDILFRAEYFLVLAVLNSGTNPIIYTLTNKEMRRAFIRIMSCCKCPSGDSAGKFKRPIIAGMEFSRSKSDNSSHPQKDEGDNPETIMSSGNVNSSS
Format: biochemical
Text: Determination of the Pharmacological Activity A) GTP-γ-S Assay Using Human Edg-1 Receptors
In order to determine the Edg-1 receptor activation by the compounds of the invention, a GTP-γ-S (guanosine 5′-[γ-thio]triphosphate) assay for G-protein coupled receptor binding based on the scintillation proximity assay principle was used, employing a cell membrane preparation from a CHO Flp-In cell line which constitutively overexpresses the human Edg-1 receptor.
The Flp-In™ expression system (Invitrogen, cat. no. K6010-01) allows the generation of stable mammalian cell lines into which the gene of interest has been integrated through homologous recombination at a specific genomic location called Flp Recombination Target (FRT) site by means of a Flp recombinase encoded by the pOG44 expression plasmid. The integration of the pcDNA5/FRT expression construct into the Flp-In host cell line genome results in the transcription of the gene of interest. The stably transfected cells become hygromycin-resistant.
One day prior to transfection, 200 000 Flp-In-CHO cells were seeded in Ham F-12 medium (Invitrogen, cat. no. 31765) supplemented with 10% fetal calf serum (FCS; Perbio Science, cat. no. SH30068.03) in a 6-well plate and incubated at 37° C./5% CO2 overnight. Using the FuGENE® 6 transfection reagent (Roche, cat. no. 11988387001), cells were cotransfected with the Flp recombinase expression plasmid pOG44 and a modified plasmid additionally containing the edg-1 gene (accession no. NM_001400) termed as pcDNA5-FRT-TO_nFLAG_DEST-EDG-1 with a 9:1 ratio. To obtain the modified pcDNA5-FRT-TO_nFLAG_DEST plasmid, the Invitrogen plasmid pcDNA5/FRT/TO (Invitrogen, cat. no. V6520-20) was adapted to the Gateway® (Invitrogen) cloning system by inserting a Gateway cassette containing attR recombination sites flanking a ccdB gene and a chloramphenicol-resistance gene (Gateway conversion system, Invitrogen, cat. no. 11828-029). In addition a FLAG tag epitope was added before the 5′ att recombination site to allow recombinant expression of N-terminally FLAG-tagged proteins.
For the transfection of one well, 1.08 μg of pOG44 and 0.12 μg of pcDNA5-FRT-TO_nFLAG_DEST-EDG-1 were mixed to 100 μl of serum-free Ham F-12 medium containing 6 μl of FuGENE® 6 transfection reagent. After 20 min of incubation, the transfection reagent/DNA complex was distributed dropwise on the cells. The cells were incubated for 24 h at 37° C. Then the cells from 3 wells each were transferred to a T75 flask (Greiner Cellstar®, cat. no. 658175) containing Ham F-12 medium supplemented with 10% of FCS but without antibiotic and were incubated another 24 h. 48 h after transfection, the medium was replaced by selection medium (Ham F-12 supplemented with 10% of FCS and 300 μg/ml of hygromycin B (Invitrogen, cat. no. 10687-010)). The medium was exchanged every 2 to 3 days until a resistant population of cells had grown. […] After 2 weeks of selection, the cells were transferred into T175 flasks (Greiner Cellstar®, cat. no. 660175) and cultivated for batch production. Cells were harvested from the culture flasks by short treatment (2 to 5 min) with Accutase (PAA, cat. no. L11-007), resuspended in selection medium (see above) and centrifuged at 200×g for 5 min. Cells were resuspended in a mixture of 90% of FCS and 10% of dimethylsulfoxide and stored frozen in liquid nitrogen.
A membrane preparation was obtained by standard methods from the afore-described CHO Flp-In cell line constitutively overexpressing the human Edg-1 receptor. Briefly, the cryopreserved cells were taken in culture and grown until confluency in T175 cell culture flasks (Becton Dickinson, cat. no. 35 5001). […]

| Compound | % Activation (Edg-1 receptor activation in percent of the activation by 10 μM S1P) [%] |
| --- | --- |
| CCOc1nc(Cc2ccc(Cl)cc2)nc2oc(-c3cc(C)c(OCC(O)CSc4ncn[nH]4)c(C)c3)nc12 (stereo not shown) [Example 293] | 99 |
| CCCOc1nc(CN2CCOCC2)nc2oc(-c3cccc(OC)c3)nc12 [Example 35] | 119 |
| CCCOc1nc(Cc2ccc(Cl)cc2)nc2oc(-c3cc(C)c(OCC(=O)NCCC(=O)O)c(C)c3)nc12 [Example 241] | 128 |
| CCCOc1nc(Cc2ccc(Cl)cc2)nc2oc(-c3cc(C)c(OCCCN[C@@H](Cc4ccccc4)C(=O)O)c(C)c3)nc12 [Example 289] | 80 |
| CCOc1nc(Cc2ccc(Cl)cc2)nc2oc(-c3cc(C)c(OCC(=O)N4CCC(C(=O)O)C4)c(C)c3)nc12 (stereo not shown) [Example 239] | 86 |
| FCCCOc1nc(Cc2ccc(Cl)cc2)nc2oc(-c3cccnc3)nc12 [Example 125] | 112 |
| CCCOc1nc(CN2CCCOCC2)nc2oc(-c3cc(OC)ccc3OC)nc12 [Example 80] | 65 |
| CCCOc1nc(CN2CCCC2COC)nc2oc(-c3cccc(F)c3)nc12 (stereo not shown) [Example 140] | 92 |
| CCOc1nc(CC2CCC2)nc2oc(-c3cc(F)ccc3Cl)nc12 [Example 164] | 98 |
| C=C(C)COc1nc(Cc2ccc(Cl)cc2)nc2oc(-c3cccc(C)c3)nc12 [Example 119] | 80 |
| CCCOc1nc(Cn2cnc(C)n2)nc2oc(-c3cccc(F)c3)nc12 [Example 154] | 88 |
| CCCOc1nc(CN2CCC(F)(F)CC2)nc2oc(-c3ccc(F)c(F)c3)nc12 [Example 68] | 120 |
| CCCOc1nc(Cc2ccc(Cl)cc2)nc2oc(-c3cc(C)c(OCCCC(=O)O)c(C)c3)nc12 [Example 251] | 112 |
| C=CCOc1nc(Cc2ccc(Cl)cc2)nc2oc(-c3cccnc3)nc12 [Example 127] | 73 |
| CCCC(=O)NCC(O)COc1c(C)cc(-c2nc3c(OCC)nc(Cc4ccc(Cl)cc4)nc3o2)cc1C (stereo not shown) [Example 216] | 105 |
| CCCOc1nc(CN2CCCOCC2)nc2oc(-c3cc(F)c(F)cc3Cl)nc12 [Example 85] | 104 |
| Cc1cccc(-c2nc3c(OCCF)nc(Cc4ccc(Cl)cc4)nc3o2)c1 [Example 118] | 103 |
| CCCOc1nc(Cc2ccc(Cl)cc2)nc2oc(-c3cc(C)c(OCCCNCc4nnn[nH]4)c(C)c3)nc12 [Example 227] | 142 |
| Fc1cccc(-c2nc3c(OC4CCCC4)nc(Cc4ccc(Cl)cc4)nc3o2)c1 [Example 112] | 66 |
| CCCOc1nc(Cc2ccc(Cl)cc2)nc2oc(-c3cc(C)c(OCC(O)CNCc4ccccc4)c(C)c3)nc12 (stereo not shown) [Example 209] | 110 |
| CCCOc1nc(CN2CCC(F)(F)CC2)nc2oc(-c3ccccc3)nc12 [Example 42] | 92 |
| CCCOc1nc(Cc2ccc(Cl)cc2)nc2oc(-c3cc(C)c(OCC(=O)NCc4ccco4)c(C)c3)nc12 [Example 252] | 102 |
| CCOc1nc(Cc2ccc(Cl)cc2)nc2oc(-c3cccc(O)c3)nc12 [Example 302] | 103 |
| CCCOc1nc(Cn2cnc(C)c2)nc2oc(-c3cccc(F)c3)nc12 [Example 57] | 99 |
| CCOc1nc(Cc2ccc(Cl)cc2)nc2oc(-c3ccc(O)c(F)c3)nc12 [Example 273] | 106 |
| C#CCOc1nc(Cc2ccc(Cl)cc2)nc2oc(-c3cccc(C)c3)nc12 [Example 109] | 61 |
| CCCOc1nc(Cn2cncn2)nc2oc(-c3cccc(F)c3)nc12 [Example 204] | 79 |
| CCOc1nc(Cc2ccc(Cl)cc2)nc2oc(-c3cc(C)c(OCC(=O)NCCC(=O)OC(C)(C)C)c(C)c3)nc12 [Example 255] | 74 |

Second part, the compound after the results:

| % Activation (Edg-1 receptor activation in percent of the activation by 10 μM S1P) [%] | Compound |
| --- | --- |
| 77 | CCCOc1nc(Cc2ccc(Cl)cc2)nc2oc(-c3cnc(N4CCN(C)CC4)nc3)nc12 [Example 173] |
| 123 | Cc1cccc(-c2nc3c(OC(C)C)nc(CN4CCOCC4)nc3o2)c1 [Example 186] |
| 43 | CCOc1nc(Cc2ccc(Cl)cc2)nc2oc(-c3cc(C)c(OCC(O)CNC4CCN(CC(C)C)CC4)c(C)c3)nc12 (stereo not shown) [Example 262] |
| 112 | CCCOc1nc(Cc2ccc(Cl)cc2)nc2oc(-c3ccc(OCC(O)CNC4CCCCC4)c(Cl)c3)nc12 (stereo not shown) [Example 211] |
| 93 | CCCOc1nc(CN2CCSC2)nc2oc(-c3cccc(F)c3)nc12 [Example 64] |
| 125 | CCCOc1nc(Cc2ccc(Cl)cc2)nc2oc(-c3cc(C)c(OCC(=O)N4CC[C@@H](O)C4)c(C)c3)nc12 [Example 232] |
| 66 | CCOc1nc(Cc2ccc(Cl)cc2)nc2oc(-c3cc(C)c(OCC(O)CN(C(C)C)C(C)C)c(C)c3)nc12 (stereo not shown) [Example 259] |
| 118 | CCCOc1nc(CN2CCCOCC2)nc2oc(-c3cccc(Cl)c3)nc12 [Example 29] |
| 42 | FCCOc1nc(CN2CCOCC2)nc2oc(-c3cccc(F)c3)nc12 [Example 32] |
| 41 | CCCOc1nc(CN2C(C(=O)O)CCS2(=O)=O)nc2oc(-c3cccc(F)c3)nc12 (stereo not shown) [Example 180] |
| 35 | CCCOc1nc(CN2CC(C(=O)OC)C2)nc2oc(-c3cccc(F)c3)nc12 [Example 52] |
| 77 | CCOc1nc(Cc2ccc(Cl)cc2)nc2oc(-c3ccc(OCC(=O)NCCN4CCOCC4)c(F)c3)nc12 [Example 279] |
| 72 | CCOc1nc(Cc2ccc(Cl)cc2)nc2oc(-c3cc(C)c(OCC(=O)NCC(=O)OC(C)(C)C)c(C)c3)nc12 [Example 250] |

Same assay, conditions: example compound at 10 μM; relative to 10 μM S1P; GTP-γ-S SPA, human Edg-1 membranes; read-out: % Activation (Edg-1 receptor activation in percent of the activation by 10 μM S1P)

| activation at 10 µM [%] | Compound |
| --- | --- |
| 81 | Cc1cccc(-c2nc3c(OCC4CC4)nc(Cc4ccc(Cl)cc4)nc3o2)c1 [Example 105, 5-(4-chloro-benzyl)-7-cyclopropylmethoxy-2-(3-methyl-phenyl)-oxazolo[5,4-d]pyrimidine] |
| 119 | CCOc1nc(Cc2ccc(Cl)cc2)nc2oc(-c3cc(C)c(OCC(O)CS(=O)(=O)c4nnc(C(C)C)[nH]4)c(C)c3)nc12 (stereo not shown) [Example 197, 1-{4-[5-(4-Chloro-benzyl)-7-ethoxy-oxazolo[5,4-d]pyrimidin-2-yl]-2,6-dimethyl-phenoxy}-3-(5-isopropyl-4H-[1,2,4]triazole-3-sulfonyl)-propan-2-ol] |
